Counter-ions that a name gives are not always drawn.
Molecular target: T1, human HFGAN72 receptor (Homo sapiens, UniProt O43613)
T1 construct: expressed in transfected cells; host or cells: HEK293
T1 sequence (O43613 1-425): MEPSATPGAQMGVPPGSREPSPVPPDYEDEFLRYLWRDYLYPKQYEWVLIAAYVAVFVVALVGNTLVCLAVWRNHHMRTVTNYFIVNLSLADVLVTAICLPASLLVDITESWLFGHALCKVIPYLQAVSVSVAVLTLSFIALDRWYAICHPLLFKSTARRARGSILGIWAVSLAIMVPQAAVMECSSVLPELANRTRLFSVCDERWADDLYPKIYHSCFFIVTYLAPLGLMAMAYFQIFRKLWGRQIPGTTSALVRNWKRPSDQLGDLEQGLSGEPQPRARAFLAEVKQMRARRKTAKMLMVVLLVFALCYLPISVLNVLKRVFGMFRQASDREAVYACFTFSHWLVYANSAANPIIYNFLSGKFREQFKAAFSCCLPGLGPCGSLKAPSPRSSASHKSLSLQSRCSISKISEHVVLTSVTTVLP
Assay: HFGAN72 receptor antagonist activity, FLIPR intracellular calcium assay against human Lig 72A
Type: cell-based
Settings: HEK293 cells expressing human HFGAN72 receptor; against 3.0 nM human Lig 72A; Kb=IC50/(1+([3/EC50])
Procedure: The HFGAN72 receptor antagonist activity of the compounds of formula (I), including those compounds in which X and Y both represent CH and without provisos a)-f), was determined in accordance with the following experimental method.
HEK293 cells expressing the human HFGAN72 receptor were grown in cell medium (MEM medium with Earl's salts) containing 2 mM L-Glutamine, 0.4 mg/mL G418 Sulphate from GIBCO BRL and 10% heat inactivated fetal calf serum from Gibco BRL. The cells were seeded at 20,000 cells/100 μl/well into 96-well black clear bottom sterile plates from Costar which had been pre-coated with 10 μg/well of poly-L-lysine from SIGMA. The seeded plates were incubated overnight at 37° C. in 5% CO2.
Agonists were prepared as 1 mM stocks in water:DMSO (1:1). EC50 values (the concentration required to produce 50% maximal response) were estimated using 11× half log unit dilutions (Biomek 2000, Beckman) in Tyrode's buffer containing probenecid (10 mM HEPES with 145 mM NaCl, 10 mM glucose, 2.5 mM KCl, 1.5 mM CaCl2, 1.2 mM MgCl2 and 2.5 mM probenecid; pH7.4). […] On the day of assay 50 μl of cell medium containing probenecid (Sigma) and Fluo3AM (Texas Fluorescence Laboratories) was added (Quadra, Tomtec) to each well to give final concentrations of 2.5 mM and 4 μM, respectively. […] Cell plates were then transferred to the Fluorescent Imaging Plate Reader (FLIPR, Molecular Devices) instrument and maintained at 37° C. in humidified air. […] Agonists were added (by the FLIPR) after 20 sec (during continuous reading). From each well, peak fluorescence was determined over the whole assay period and the mean of readings 1-19 inclusive was subtracted from this figure. The peak increase in fluorescence was plotted against compound concentration and iteratively curve fitted using a four parameter logistic fit (as described by Bowen and Jerman, 1995, TiPS, 16, 413-417) to generate a concentration effect value. Antagonist Kb values were calculated using the equation: […]
where EC50 was the potency of human Lig72A determined in the assay (in nM terms) and IC50 is expressed in molar terms.

| Kb | SMILES |
| --- | --- |
| < 100 nM | COc1ccc(NC(=O)Nc2ccnc3ccccc23)cc1Cl [Example 31, 1-(3-Chloro-4-methoxyphenyl)-3-quinolin-4-ylurea hydrochloride] |
| < 100 nM | Cn1ccc2cc(NC(=O)Nc3ccnc4ccccc34)ccc21 [Example 1, 1-(1-Methyl-1H-indol-5-yl)-3-quinolin-4-ylurea] |
| < 100 nM | CSc1ccc(NC(=O)Nc2ccnc3ccccc23)cc1 [Example 14, 1-(4-Methylthiophenyl)-3-quinolin-4-ylurea hydrochloride] |

From patent US6410529B1, “Phenyl urea and phenyl thiourea derivatives as HFGAN72 antagonists” (SmithKline Beecham p.l.c., priority 1997, dated 2002)
